In PubChem BioAssay (NCI):
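Values below derive from 48-hour exposures of cells grown in 96-well plates, with endpoints linearly interpolated between the two concentrations bracketing the appropriate inhibition level. Definition used: TGI = concentration required for complete inhibition of growth.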

Experiments:
Test in all cases: NCI tumour cell line growth inhibition, 48 h
786-0 renal = system: 786-0 renal
A498 renal = system: A498 renal
A549 NSCLC = system: A549 NSCLC
ACHN renal = system: ACHN renal
BT-549 breast = system: BT-549 breast
CAKI-1 renal = system: CAKI-1 renal
CCRF-CEM leukemia = system: CCRF-CEM leukemia
COLO 205 colon = system: COLO 205 colon
DU-145 prostate = system: DU-145 prostate
EKVX NSCLC = system: EKVX NSCLC
HCC-2998 colon = system: HCC-2998 colon
HCT-116 colon = system: HCT-116 colon
HCT-15 colon = system: HCT-15 colon
HL-60(TB) leukemia = system: HL-60(TB) leukemia
HOP-62 NSCLC = system: HOP-62 NSCLC
HOP-92 NSCLC = system: HOP-92 NSCLC
HS 578T breast = system: HS 578T breast
HT29 colon = system: HT29 colon
IGROV1 ovarian = system: IGROV1 ovarian
K-562 leukemia = system: K-562 leukemia
KM12 colon = system: KM12 colon
LOX IMVI melanoma = system: LOX IMVI melanoma
M14 melanoma = system: M14 melanoma
MALME-3M melanoma = system: MALME-3M melanoma
MCF7 breast = system: MCF7 breast
MDA-MB-231 breast = system: MDA-MB-231 breast
MDA-MB-435 = system: MDA-MB-435
MDA-N = system: MDA-N
MOLT-4 leukemia = system: MOLT-4 leukemia
NCI-H226 lung = system: NCI-H226 lung
NCI-H23 lung = system: NCI-H23 lung
NCI-H460 lung = system: NCI-H460 lung
NCI/ADR-RES ovarian = system: NCI/ADR-RES ovarian
OVCAR-3 ovarian = system: OVCAR-3 ovarian
OVCAR-4 ovarian = system: OVCAR-4 ovarian
OVCAR-5 ovarian = system: OVCAR-5 ovarian
OVCAR-8 ovarian = system: OVCAR-8 ovarian
PC-3 prostate = system: PC-3 prostate
RPMI-8226 leukemia = system: RPMI-8226 leukemia
RXF 393 renal = system: RXF 393 renal
SF-268 CNS = system: SF-268 CNS
SF-295 CNS = system: SF-295 CNS
SF-539 CNS = system: SF-539 CNS
SK-MEL-2 melanoma = system: SK-MEL-2 melanoma
SK-MEL-28 melanoma = system: SK-MEL-28 melanoma
SK-MEL-5 melanoma = system: SK-MEL-5 melanoma
SK-OV-3 ovarian = system: SK-OV-3 ovarian
SN12C renal = system: SN12C renal
SNB-19 CNS = system: SNB-19 CNS
SNB-75 CNS = system: SNB-75 CNS
SR leukemia = system: SR leukemia
SW-620 colon = system: SW-620 colon
T-47D breast = system: T-47D breast
TK-10 renal = system: TK-10 renal
U251 CNS = system: U251 CNS
UACC-257 melanoma = system: UACC-257 melanoma
UACC-62 melanoma = system: UACC-62 melanoma
UO-31 renal = system: UO-31 renal
NCI-H522 lung = system: NCI-H522 lung

With `CCOC(=O)N1CCC2(CC1)CC(=O)N(Nc1ccccc1)C2=O` the TGI (786-0 renal) was greater than 100 µM, the TGI (A498 renal) was greater than 100 µM and the TGI (A549 NSCLC) was greater than 100 µM. For the same compound, the TGI (ACHN renal) was greater than 100 µM, the TGI (BT-549 breast) was greater than 100 µM and the TGI (CAKI-1 renal) was greater than 100 µM. The TGI (CCRF-CEM leukemia) was greater than 100 µM, the TGI (COLO 205 colon) was greater than 100 µM and the TGI (DU-145 prostate) was greater than 100 µM. It also gave a TGI (EKVX NSCLC) greater than 100 µM, a TGI (HCC-2998 colon) greater than 100 µM and a TGI (HCT-116 colon) greater than 100 µM. For the same compound, the TGI (HCT-15 colon) was greater than 100 µM, the TGI (HL-60(TB) leukemia) was greater than 100 µM and the TGI (HOP-62 NSCLC) was greater than 100 µM. For the same compound, the TGI (HOP-92 NSCLC) was greater than 100 µM, the TGI (HS 578T breast) was greater than 100 µM and the TGI (HT29 colon) was greater than 100 µM. It also gave a TGI (IGROV1 ovarian) greater than 100 µM, a TGI (K-562 leukemia) greater than 100 µM and a TGI (KM12 colon) greater than 100 µM. It also gave a TGI (LOX IMVI melanoma) greater than 100 µM, a TGI (M14 melanoma) greater than 100 µM and a TGI (MALME-3M melanoma) greater than 100 µM. It also gave a TGI (MCF7 breast) greater than 100 µM, a TGI (MDA-MB-231 breast) greater than 100 µM and a TGI (MDA-MB-435) greater than 100 µM. For the same compound, the TGI (MDA-N) was greater than 100 µM, the TGI (MOLT-4 leukemia) was greater than 100 µM and the TGI (NCI-H226 lung) was greater than 100 µM. It also gave a TGI (NCI-H23 lung) greater than 100 µM, a TGI (NCI-H460 lung) greater than 100 µM and a TGI (NCI/ADR-RES ovarian) greater than 100 µM. It also gave a TGI (OVCAR-3 ovarian) greater than 100 µM, a TGI (OVCAR-4 ovarian) greater than 100 µM and a TGI (OVCAR-5 ovarian) greater than 100 µM. The TGI (OVCAR-8 ovarian) was greater than 100 µM, the TGI (PC-3 prostate) was greater than 100 µM and the TGI (RPMI-8226 leukemia) was greater than 100 µM. For the same compound, the TGI (RXF 393 renal) was greater than 100 µM, the TGI (SF-268 CNS) was greater than 100 µM and the TGI (SF-295 CNS) was greater than 100 µM. For the same compound, the TGI (SF-539 CNS) was greater than 100 µM, the TGI (SK-MEL-2 melanoma) was greater than 100 µM and the TGI (SK-MEL-28 melanoma) was greater than 100 µM. For the same compound, the TGI (SK-MEL-5 melanoma) was greater than 100 µM, the TGI (SK-OV-3 ovarian) was greater than 100 µM and the TGI (SN12C renal) was greater than 100 µM. For the same compound, the TGI (SNB-19 CNS) was greater than 100 µM, the TGI (SNB-75 CNS) was greater than 100 µM and the TGI (SR leukemia) was greater than 100 µM. It also gave a TGI (SW-620 colon) greater than 100 µM, a TGI (T-47D breast) greater than 100 µM and a TGI (TK-10 renal) greater than 100 µM. The TGI (U251 CNS) was greater than 100 µM, the TGI (UACC-257 melanoma) was greater than 100 µM and the TGI (UACC-62 melanoma) was greater than 100 µM. It also gave a TGI (UO-31 renal) greater than 100 µM.

For `CC(C)N(C(=O)C12C3(C(=O)OC(C)(C)C)C4C5(C#N)C3C1(C(=O)OC(C)(C)C)C5C42C(=O)OC(C)(C)C)C(C)C` (stereo not drawn), the TGI (786-0 renal) was greater than 100 µM, the TGI (A498 renal) was greater than 100 µM and the TGI (A549 NSCLC) was greater than 100 µM. For the same compound, the TGI (ACHN renal) was greater than 100 µM, the TGI (BT-549 breast) was greater than 100 µM and the TGI (CAKI-1 renal) was greater than 100 µM. The TGI (CCRF-CEM leukemia) was 30.9 µM, the TGI (COLO 205 colon) was greater than 100 µM and the TGI (DU-145 prostate) was greater than 100 µM. The TGI (EKVX NSCLC) was greater than 100 µM, the TGI (HCC-2998 colon) was greater than 100 µM and the TGI (HCT-116 colon) was 73.5 µM. The TGI (HCT-15 colon) was greater than 100 µM, the TGI (HL-60(TB) leukemia) was greater than 100 µM and the TGI (HOP-62 NSCLC) was greater than 100 µM. It also gave a TGI (HOP-92 NSCLC) greater than 100 µM, a TGI (HS 578T breast) greater than 100 µM and a TGI (HT29 colon) greater than 100 µM. The TGI (IGROV1 ovarian) was greater than 100 µM, the TGI (K-562 leukemia) was greater than 100 µM and the TGI (KM12 colon) was greater than 100 µM. The TGI (LOX IMVI melanoma) was 29 µM, the TGI (M14 melanoma) was greater than 100 µM and the TGI (MCF7 breast) was 43.9 µM. For the same compound, the TGI (MDA-MB-231 breast) was greater than 100 µM, the TGI (MDA-MB-435) was greater than 100 µM and the TGI (MDA-N) was greater than 100 µM. For the same compound, the TGI (MOLT-4 leukemia) was 40.1 µM, the TGI (NCI-H23 lung) was greater than 100 µM and the TGI (NCI-H460 lung) was greater than 100 µM. The TGI (NCI-H522 lung) was greater than 100 µM, the TGI (NCI/ADR-RES ovarian) was greater than 100 µM and the TGI (OVCAR-3 ovarian) was greater than 100 µM. The TGI (OVCAR-4 ovarian) was greater than 100 µM, the TGI (OVCAR-5 ovarian) was greater than 100 µM and the TGI (OVCAR-8 ovarian) was greater than 100 µM. The TGI (PC-3 prostate) was greater than 100 µM, the TGI (RXF 393 renal) was greater than 100 µM and the TGI (SF-268 CNS) was greater than 100 µM. It also gave a TGI (SF-295 CNS) greater than 100 µM, a TGI (SF-539 CNS) greater than 100 µM and a TGI (SK-MEL-2 melanoma) greater than 100 µM. The TGI (SK-MEL-28 melanoma) was greater than 100 µM, the TGI (SK-MEL-5 melanoma) was greater than 100 µM and the TGI (SN12C renal) was greater than 100 µM. The TGI (SNB-19 CNS) was greater than 100 µM, the TGI (SNB-75 CNS) was 41.8 µM and the TGI (SR leukemia) was 69.6 µM. The TGI (SW-620 colon) was greater than 100 µM, the TGI (T-47D breast) was greater than 100 µM and the TGI (TK-10 renal) was greater than 100 µM. It also gave a TGI (U251 CNS) greater than 100 µM, a TGI (UACC-257 melanoma) greater than 100 µM and a TGI (UACC-62 melanoma) greater than 100 µM. The TGI (UO-31 renal) was greater than 100 µM.
